Data from patent US6815456B2, “Heterocyclyloxy-, -thioxy- and -aminobenzazole derivatives as 5-hydroxytryptamine-6 ligands” (Wyeth, priority 2001, dated 2004).
Structures can show the parent of a compound that is named as a salt.

Key:
[1] = biological target: T1, human cloned 5-HT6 receptors (Homo sapiens, UniProt P50406); assay: 5-HT6 binding affinity, [3H]-LSD displacement on membranes of Hela cells expressing human cloned 5-HT6 receptors; conditions: [3H]-LSD 3.0 nM, Hela cell membranes, 120 min at room temperature
T1 construct: expressed in transfected cells; host or cells: HeLa cells
Method: The affinity of test compounds for the serotonin 5-HT6 receptor is evaluated in the following manner. Cultured Hela cells expressing human cloned 5-HT6 receptors are harvested and centrifuged at low speed (1,000×g) for 10.0 min to remove the culture media. The harvested cells are suspended in half volume of fresh physiological phosphate buffered saline solution and recentrifuged at the same speed. This operation is repeated. The collected cells are then homogenized in ten volumes of 50 mM Tris.HCl (pH 7.4) and 0.5 mM EDTA. The homogenate is centrifuged at 40,000×g for 30.0 min and the precipitate is collected. The obtained pellet is resuspended in 10 volumes of Tris.HCl buffer and recentrifuged at the same speed. The final pellet is suspended in a small volume of Tris.HCl buffer and the tissue protein content is determined in aliquots of 10-25 μl volumes. Bovine Serum Albumin is used as the standard in the protein determination according to the method described in Lowry et al., J. Biol. Chem., 193:265 (1951). The volume of the suspended cell membranes is adjusted to give a tissue protein concentration of 1.0 mg/ml of suspension. The prepared membrane suspension (10 times concentrated) is aliquoted in 1.0 ml volumes and stored at −70° C. until used in subsequent binding experiments.
Binding experiments are performed in a 96 well microtiter plate format, in a total volume of 200 μl. […] The test compounds are added in 20.0 μl volume.
The reaction is allowed to proceed in the dark for 120 min at room temperature, at which time, the bound ligand-receptor complex is filtered off on a 96 well unifilter with a Packard Filtermate® 196 Harvester. The bound complex caught on the filter disk is allowed to air dry and the radioactivity is measured in a Packard TopCount® equipped with six photomultiplier detectors, after the addition of 40.0 μl Microscint®-20 scintillant to each shallow well. The unifilter plate is heat-sealed and counted in a PackardTopCount® with a tritium efficiency of 31.0%.
Binding in the presence of varying concentrations of test compound is expressed as a percentage of specific binding in the absence of test compound. The results are plotted as log % bound versus log concentration of test compound. […] A linear regression line of data points is plotted, from which the IC50 value is determined and the Ki value is determined based upon the following equation: […]
where L is the concentration of the radioactive ligand used and KD is the dissociation constant of the ligand for the receptor, both expressed in nM.

T1 sequence (P50406 whole entry): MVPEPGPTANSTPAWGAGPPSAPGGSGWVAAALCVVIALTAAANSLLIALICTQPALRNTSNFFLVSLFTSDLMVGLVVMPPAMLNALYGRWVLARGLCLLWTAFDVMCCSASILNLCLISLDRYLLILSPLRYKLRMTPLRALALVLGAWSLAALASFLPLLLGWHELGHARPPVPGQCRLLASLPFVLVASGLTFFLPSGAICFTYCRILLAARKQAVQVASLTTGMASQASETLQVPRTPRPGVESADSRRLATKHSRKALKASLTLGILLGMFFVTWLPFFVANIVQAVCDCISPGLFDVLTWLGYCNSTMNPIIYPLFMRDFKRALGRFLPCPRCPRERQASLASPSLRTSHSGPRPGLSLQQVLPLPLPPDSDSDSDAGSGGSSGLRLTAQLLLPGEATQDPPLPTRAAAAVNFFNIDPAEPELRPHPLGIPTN

O=S(=O)(c1cccc2ccccc12)n1ccc2c(OC3CCNC3)cccc21 (stereo not shown) (as salt: hydrochloride) [Example 6, 1-(1-naphthylsulfonyl)-4-(3-pyrrolidinyloxy)-1H-indole]
melting point: 179 °C (dec.)

Cc1nn(C)c(Cl)c1S(=O)(=O)n1ccc2c(OC3CCNC3)cccc21 (stereo not shown) (as salt: hydrochloride) [Example 7, 1-[(5-Chloro-1,3-dimethyl-1H-pyrazol-4-yl)sulfonyl]-4-(3-pyrrolidinyloxy)-1H-indole]
melting point: 100 °C (dec.)

Nc1ccc(S(=O)(=O)n2ccc3c(OC4CCNCC4)cccc32)cc1 (as salt: hydrochloride) [Example 8, 4-{[4-(piperidin-4-yloxy)-1H-indol-1-yl]sulfonyl}aniline]
melting point: 117 to 119 °C

Nc1ccc(S(=O)(=O)n2ccc3c(OC4CCCNC4)cccc32)cc1 (stereo not shown) (as salt: hydrochloride) [Example 9, 4-{[4-(piperidin-3-yloxy)-1H-indol-1-yl]sulfonyl}aniline]
melting point: 160 °C (dec.)

O=S(=O)(c1cccc2ccccc12)n1ncc2c(OC3CCNC3)cccc21 (stereo not shown) (as salt: trifluoroacetic acid salt) [Example 15, 1-(1-naphthylsulfonyl)-4-(3-pyrrolidinyloxy)-1H-indazole]
melting point: 200 to 201 °C

O=S(=O)(c1ccccc1Cl)n1ncc2c(OC3CCNC3)cccc21 (stereo not shown) (as salt: trifluoroacetic acid salt) [Example 16, 1-[(2-Chlorophenyl)sulfonyl]-4-(3-pyrrolidinyloxy)-1H-indazole]
melting point: 161 to 163 °C

O=S(=O)(c1ccccc1F)n1ncc2c(OC3CCNC3)cccc21 (stereo not shown) (as salt: trifluoroacetic acid salt) [Example 17, 1-[(2-fluorophenyl)sulfonyl]-4-(3-pyrrolidinyloxy)-1H-indazole]
melting point: 162 to 163 °C

O=S(=O)(c1ccc(Cl)s1)n1ncc2c(OC3CCNC3)cccc21 (stereo not shown) (as salt: trifluoroacetic acid salt) [Example 19, 1-[(5-Chlorothien-2-yl)sulfonyl]-4-(3-pyrrolidinyloxy)-1H-indazole]
melting point: 102 to 103 °C

CC(=O)Nc1ccc(S(=O)(=O)n2ncc3c(OC4CCNC4)cccc32)cc1Cl (stereo not shown) (as salt: trifluoroacetic acid salt) [Example 20, N-(2-Chloro-4-{[4-(3-pyrrolidinyloxy)-1H-indazol-1-yl]sulfonyl}phenyl)acetamide]
melting point: 68 to 72 °C

O=S(=O)(c1cccc2cccnc12)n1ncc2c(OC3CCNC3)cccc21 (stereo not shown) (as salt: trifluoroacetic acid salt) [Example 22, 8-{[4-(3-pyrrolidinyloxy)-1H-indazol-1-yl]sulfonyl}quinoline]
melting point: 79 °C

O=S(=O)(c1ccccc1)n1ccc2c(OC3CCNC3)cccc21 (stereo not shown) [Example 3, 1-(Phenylsulfonyl)-4-(3-pyrrolidinyloxy)-1H-indole Hydrochloride]
Ki [1]: 8 nM

O=S(=O)(c1cccs1)n1ccc2c(OC3CCNC3)cccc21 (stereo not shown) [Example 4, 4-(3-pyrrolidinyloxy)1-(thien-2-ylsulfonyl)-1H-indole]
Ki [1]: 25 nM

Nc1ccc(S(=O)(=O)n2ccc3c(OC4CCNC4)cccc32)cc1 (stereo not shown) [Example 5, 4-{[4-(3-pyrrolidinyloxy)-1H-indol-1-yl]sulfonyl}aniline]
Ki [1]: 5 nM

O=S(=O)(c1cccc2ccccc12)n1ccc2c(OC3CCNC3)cccc21 (stereo not shown) [Example 6, 1-(1-naphthylsulfonyl)-4-(3-pyrrolidinyloxy)-1H-indole]
Ki [1]: 13 nM

Nc1ccc(S(=O)(=O)n2ccc3c(OC4CCNCC4)cccc32)cc1 [Example 8, 4-{[4-(piperidin-4-yloxy)-1H-indol-1-yl]sulfonyl}aniline]
Ki [1]: 3 nM

Nc1ccc(S(=O)(=O)n2ccc3c(OC4CCCNC4)cccc32)cc1 (stereo not shown) [Example 9, 4-{[4-(piperidin-3-yloxy)-1H-indol-1-yl]sulfonyl}aniline]
Ki [1]: 11 nM

O=S(=O)(c1ccccc1)n1ncc2c(OC3CCNC3)cccc21 (stereo not shown) [Example 14, 1-(Phenylsulfonyl)-4-(pyrrolidin-3-yloxy)-1H-indazole, trifluoroacetic acid salt]
Ki [1]: 19 nM

O=S(=O)(c1cccc2ccccc12)n1ncc2c(OC3CCNC3)cccc21 (stereo not shown) [Example 15, 1-(1-naphthylsulfonyl)-4-(3-pyrrolidinyloxy)-1H-indazole]
Ki [1]: 3 nM

O=S(=O)(c1ccccc1Cl)n1ncc2c(OC3CCNC3)cccc21 (stereo not shown) [Example 16, 1-[(2-Chlorophenyl)sulfonyl]-4-(3-pyrrolidinyloxy)-1H-indazole]
Ki [1]: 19 nM

O=S(=O)(c1ccccc1F)n1ncc2c(OC3CCNC3)cccc21 (stereo not shown) [Example 17, 1-[(2-fluorophenyl)sulfonyl]-4-(3-pyrrolidinyloxy)-1H-indazole]
Ki [1]: 25 nM

COc1ccc(S(=O)(=O)n2ncc3c(OC4CCNC4)cccc32)cc1OC (stereo not shown) [Example 18]
Ki [1]: 75 nM

O=S(=O)(c1ccc(Cl)s1)n1ncc2c(OC3CCNC3)cccc21 (stereo not shown) [Example 19, 1-[(5-Chlorothien-2-yl)sulfonyl]-4-(3-pyrrolidinyloxy)-1H-indazole]
Ki [1]: 9 nM

CC(=O)Nc1ccc(S(=O)(=O)n2ncc3c(OC4CCNC4)cccc32)cc1Cl (stereo not shown) [Example 20, N-(2-Chloro-4-{[4-(3-pyrrolidinyloxy)-1H-indazol-1-yl]sulfonyl}phenyl)acetamide]
Ki [1]: 12 nM

CC(=O)Nc1ccc(S(=O)(=O)n2ncc3c(OC4CCNC4)cccc32)cc1 (stereo not shown) [Example 21]
Ki [1]: 124 nM

O=S(=O)(c1cccc2cccnc12)n1ncc2c(OC3CCNC3)cccc21 (stereo not shown) [Example 22, 8-{[4-(3-pyrrolidinyloxy)-1H-indazol-1-yl]sulfonyl}quinoline]
Ki [1]: 22 nM
